± gives the expanded uncertainty stated by the source.

A short description of data set [1]: Molar enthalpy of transition or fusion. The conditions noted are these: Crystal; DSC.
For data set [2] the following is noted: Crystal; DTA.

In the case of `CC(=O)CCc1ccc(O)cc1` [4-(4-hydroxyphenyl)butan-2-one], the “Molar enthalpy of transition or fusion” value in data set [1] was found to be 5.9 ± 0.143 kcal/mol. Also, in data set [2], the Normal melting temperature came out at 82 ± 0.6 °C.
